Patent US7795287B2, “Therapeutic substituted hydantoins and related compounds” (Allergan, Inc., priority 2006, dated 2010)

How the values were obtained:
[1] = biological target: T1, EP2 (Homo sapiens, UniProt P43116); test: EP2 cAMP; format: cell-based
Description: (§1) U.S. patent application Ser. No. 11/553,143, filed on Oct. 26, 2006, incorporated by reference herein, describes the methods used to obtain the in vitro data in the table below.

[2] = biological target: T1, EP2; test: EP2 flipr; format: cell-based
Description: as §1

[3] = biological target: T1, EP2; test: EP2 binding (Ki)
Description: as §1

[4] = biological target: EP4 (Homo sapiens, UniProt P35408); test: EP4 binding (KI)
Description: as §1

[5] = biological target: T2, hEP3A (Homo sapiens, UniProt P43115); test: Other Receptors, hEP3A; format: cell-based
T2 sequence (P43115 1-390): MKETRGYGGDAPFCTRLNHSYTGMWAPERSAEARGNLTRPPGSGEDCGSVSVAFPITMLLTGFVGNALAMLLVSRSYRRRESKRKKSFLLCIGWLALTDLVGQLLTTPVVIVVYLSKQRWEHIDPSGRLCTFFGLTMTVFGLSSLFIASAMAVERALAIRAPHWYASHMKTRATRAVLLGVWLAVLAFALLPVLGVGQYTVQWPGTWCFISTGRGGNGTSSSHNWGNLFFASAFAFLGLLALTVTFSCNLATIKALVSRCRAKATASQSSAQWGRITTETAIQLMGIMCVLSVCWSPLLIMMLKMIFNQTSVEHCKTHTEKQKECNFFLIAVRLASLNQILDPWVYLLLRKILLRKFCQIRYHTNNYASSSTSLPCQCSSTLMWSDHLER
Description: as §1

[6] = biological target: T3, hDP (Homo sapiens, UniProt Q13258); test: Other Receptors, hDP; format: cell-based
T3 sequence (Q13258 1-359): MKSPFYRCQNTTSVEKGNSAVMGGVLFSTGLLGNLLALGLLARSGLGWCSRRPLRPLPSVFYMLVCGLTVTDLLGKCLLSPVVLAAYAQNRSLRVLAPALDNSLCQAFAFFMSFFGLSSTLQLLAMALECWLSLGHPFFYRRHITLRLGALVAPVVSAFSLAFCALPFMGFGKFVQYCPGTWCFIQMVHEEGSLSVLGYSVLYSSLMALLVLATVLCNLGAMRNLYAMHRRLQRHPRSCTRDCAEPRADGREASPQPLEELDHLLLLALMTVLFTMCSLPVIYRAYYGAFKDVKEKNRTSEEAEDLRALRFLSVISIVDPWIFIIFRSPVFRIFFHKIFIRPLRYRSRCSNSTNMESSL
Description: as §1

[7] = test system: normotensive dogs; test: Ocular surface hyperemia in normotensive dogs; format: in vivo; conditions: 0.003%, once daily for 5 days, maximum at 26 h
Experimental: U.S. Pat. No. 7,091,231 describes the methods used to carry out the tests reported below.
Isopropyl 5-(3-(3-(4-(1-hydroxyhexyl)phenyl)-2,5-dioxoimidazolidin-4-yl)propyl)thiophene-2-carboxylate (31) was tested in normotensive dogs at 0.003%, dosing once daily for 5 days. The maximum intraocular pressure (IOP) decrease from baseline was 7.7 mmHg (45%) at 102 h; the maximum ocular surface hyperemia (OSH) score was 2.5 at 26 h.

T1 sequence (P43116 whole entry): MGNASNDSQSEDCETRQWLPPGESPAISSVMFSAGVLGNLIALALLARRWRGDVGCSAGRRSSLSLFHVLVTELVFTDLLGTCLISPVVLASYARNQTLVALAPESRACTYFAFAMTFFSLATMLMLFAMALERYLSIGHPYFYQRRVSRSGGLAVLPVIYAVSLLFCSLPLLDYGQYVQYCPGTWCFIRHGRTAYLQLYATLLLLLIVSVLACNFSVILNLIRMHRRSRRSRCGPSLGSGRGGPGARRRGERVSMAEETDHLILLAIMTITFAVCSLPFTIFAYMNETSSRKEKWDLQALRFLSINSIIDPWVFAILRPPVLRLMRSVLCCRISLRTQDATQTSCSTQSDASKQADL
Sequence of EP4 (P35408 whole entry): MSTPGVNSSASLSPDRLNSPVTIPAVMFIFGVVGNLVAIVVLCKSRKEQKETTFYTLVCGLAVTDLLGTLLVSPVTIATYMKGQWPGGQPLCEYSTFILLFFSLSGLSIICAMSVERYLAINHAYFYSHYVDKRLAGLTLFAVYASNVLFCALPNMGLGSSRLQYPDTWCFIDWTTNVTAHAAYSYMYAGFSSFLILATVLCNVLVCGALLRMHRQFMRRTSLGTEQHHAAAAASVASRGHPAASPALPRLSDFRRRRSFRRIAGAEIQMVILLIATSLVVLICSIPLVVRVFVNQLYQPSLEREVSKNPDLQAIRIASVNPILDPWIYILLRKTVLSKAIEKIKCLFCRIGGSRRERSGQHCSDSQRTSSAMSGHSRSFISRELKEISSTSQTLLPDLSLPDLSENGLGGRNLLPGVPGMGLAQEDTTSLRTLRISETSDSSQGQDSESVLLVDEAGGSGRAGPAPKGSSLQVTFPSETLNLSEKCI

Row | Compound | EC50 [1] [nM] | EC50 [2] [nM] | Ki [3] [nM] | Ki [4] [nM] | EC50 [5] [nM] | EC50 [6] [nM] | maximum ocular surface hyperemia (OSH) score [7]
1 | CCCCCC(=O)c1ccc(N2C(=O)NC(=O)C2CCCc2ccc(C(=O)O)s2)cc1 (centres unmarked) | 0.2 |  |  |  |  |  | 
2 | CCCCCC(O)c1ccc(N2C(=O)NC(=O)C2CCCc2ccc(C(=O)O)s2)cc1 (centres unmarked) | 0.1 | 3.5 | 5 | > 10000 | 10 | 17400 | 
3 | CCCCCC(O)c1ccc(N2C(=O)NC(=O)C2CCCc2ccc(C(=O)OC(C)C)s2)cc1 (centres unmarked) [Compound 31, Isopropyl 5-(3-(3-(4-(1-hydroxyhexyl)phenyl)-2,5-dioxoimidazolidin-4-yl)propyl)thiophene-2-carboxylate] |  |  |  |  |  |  | 2.5
